According to PMC3368601 (Chemistry & biology, 2011):

Molecular target: AAK1 (adaptor-associated kinase 1) (Homo sapiens, UniProt Q2M2I8)
Test: ADP-Glo kinase assay with recombinant AAK1 and AP2M1 peptide
Format: biochemical

Chain of AAK1 (adaptor-associated kinase 1) (Q2M2I8 46-315 limits assumed): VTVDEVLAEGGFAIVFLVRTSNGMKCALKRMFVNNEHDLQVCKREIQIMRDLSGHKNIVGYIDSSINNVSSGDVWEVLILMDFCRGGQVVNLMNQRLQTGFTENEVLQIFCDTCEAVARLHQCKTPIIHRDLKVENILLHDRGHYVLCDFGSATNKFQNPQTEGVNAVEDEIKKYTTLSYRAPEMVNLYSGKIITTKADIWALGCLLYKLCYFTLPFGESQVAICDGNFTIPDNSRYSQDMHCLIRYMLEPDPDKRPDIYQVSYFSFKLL

## COC(=O)C1(O)C[C@H]2O[C@]1(C)n1c3ccccc3c3c4c(c5c6ccccc6n2c5c31)C(=O)NC4 (stereo partly shown) [compound 1, K252a]
  IC50: < 10 nM
